Experimental data as given in paper PMC12028158, “Synthesis and In Vitro Evaluation of the Anticancer Effect of Novel Phosphonium Vindoline Derivatives” (International Journal of Molecular Sciences, 2025).
“Also recorded” adds a separate entry of the source. Read-outs that look alike come from different tables or passages of the source.

How the values were obtained:
[1] = test system: SiHa; experiment: MTT antiproliferative assay; format: cell-based, human; conditions: SiHa, 72 h; for inhibition at 10 µM / inhibition at 30 µM: Homo sapiens
Protocol: (§1) The antiproliferative properties of the tested compounds were additionally determined using the MTT assay against a panel of human adherent cancer cell lines isolated from breast (MCF-7 and MDA-MB-231), cervical (HeLa and SiHa), and ovarian (A2780) tumors and also on the NIH/3T3 fibroblast cell line (Table 3). IC50 values were calculated from a wider concentration range (0.1–30 μM) when higher than 50% cell growth inhibition was obtained at 10 μM (Table 4). Cisplatin was used as a reference compound. […] The noncancerous fibroblast cell line NIH/3T3 was used to gather preliminary data regarding the cancer selectivity of vindolin derivatives. […] The tumor selectivity of compound 9g, expressed as the ratio of IC50 on cancer cells and fibroblasts, is substantially higher than that of cisplatin (Table 4).
(§2) The antiproliferative effects of the prepared derivatives were evaluated in vitro using the MTT assay against a panel of human adherent cancer cell lines, including breast (MDA-MB-231, MCF-7), cervical (SiHa, HeLa), and ovarian (A2780) cancer cells. The noncancerous fibroblast cell line NIH/3T3 was included to obtain data concerning the tumor selectivity of the test substances. All cell lines were sourced from the European Collection of Cell Cultures (Salisbury, UK), except for SiHa (American Tissue Culture Collection (Manassas, VA, USA). All cell lines were maintained in Eagle’s Minimal Essential Medium (EMEM) supplemented with 10% fetal bovine serum (FBS), 1% non-essential amino acids, and a mixture of penicillin, streptomycin, and amphotericin B. The cells were maintained in a humidified atmosphere containing 5% CO2 at 37 °C. The media and the cell culture supplements were procured from Capricorn Scientific Ltd. (Ebsdorfergrund, Germany). Cells were seeded into 96-well microplates at 5000/well and, the next day, treated with vindoline derivatives at two concentrations (10 or 30 μM) for 72 h under cell culturing conditions. […] When higher than 50% cell growth inhibition was observed, the assay was repeated using a wide concentration range (0.1–30 μM). The IC50 values were calculated using GraphPad Prism software 10.3.1 (GraphPad Software, San Diego, CA, USA). Two independent experiments were performed with at least five replicates per condition.

[2] = test system: 60 human tumor cell lines (NCI60); parameters: method as in PMID 39063170; conditions: previous work; cited from earlier work
[3] = test system: panel of human adherent cancer cell lines; experiment: MTT antiproliferative assay, whole cancer panel; format: cell-based; conditions: for anticancer activity / cytotoxic effect (in words): MTT panel
Protocol: as §1, §2

[4] = test system: A2780; experiment: MTT antiproliferative assay; format: cell-based, human; conditions: Homo sapiens, 72 h, 72 h; for inhibition at 10 µM: A2780, 10 μM; for inhibition at 30 µM: A2780, 30 μM, read-out: Growth Inhibition (%) ± SEM (converted)
Protocol: as §1, §2

[5] = test system: HeLa; experiment: MTT antiproliferative assay; format: cell-based, human; conditions: Homo sapiens, HeLa, 72 h; for inhibition at 10 µM: read-out: Growth Inhibition (%) ± SEM; for inhibition at 30 µM: read-out: Growth Inhibition (%) ± SEM (converted)
Protocol: as §1, §2

[6] = test system: MDA-MB-231; experiment: MTT antiproliferative assay; format: cell-based, human; conditions: Homo sapiens, 72 h, 72 h; for inhibition at 10 µM: MDA-MB-231, 10 μM; for inhibition at 30 µM: MDA-MB-231, 30 μM
Protocol: as §1, §2

[7] = test system: MCF-7; experiment: MTT antiproliferative assay; format: cell-based, human; conditions: Homo sapiens, MCF7, 72 h; for inhibition at 30 µM: MCF-7, 30 μM, read-out: Growth Inhibition (%) ± SEM (converted)
Protocol: as §1, §2

[8] = test system: NIH/3T3 (fibroblast); experiment: MTT antiproliferative assay; format: cell-based; conditions: Mus musculus, 72 h; for inhibition at 10 µM: NIH3T3, 10 μM, read-out: Growth Inhibition (%) ± SEM; for inhibition at 30 µM: NIH3T3, 30 μM, read-out: Growth Inhibition (%) ± SEM (converted)
Protocol: as §1, §2

[9] = heading: Growth Inhibition ± SEM
[10] = read-out: Growth Inhibition (%) ± SEM
[11] = read-out: Growth Inhibition (%) ± SEM (converted)

SMILES	antiproliferative effects (in words) [2]	anticancer activity / cytotoxic effect (in words) [3]	inhibition at 30 µM [4] [%]	inhibition at 10 µM [5] [%]	inhibition at 30 µM [5] [%]	inhibition at 30 µM [7] [%]	inhibition at 10 µM [8] [%]	inhibition at 30 µM [8] [%]	other results
N.N.[Cl][Pt][Cl] [Cisplatin, reference compound]	–	–	–	–	–	–	–	–	IC50 ([1]; MTT, read-out: IC50 Value (μM) ± SEM): 15.5 ± 0.93 µM
CCC12C=CCN3CCC4(c5ccc(OC)cc5N(C)C4C(O)(C(=O)OC)C1O)C32 (centres unmarked) [compound 6, 17-desacetylvindoline]	do not exert antiproliferative effects	–	–	–	–	–	–	–	–
CCC12C=CCN3CCC4(c5ccc(OC)cc5N(C)C4C(O)(C(=O)OC)C1OC(=O)CCCBr)C32 (centres unmarked) [compound 7, 17-(O-4-bromobutanoyl)vindoline]	do not exert antiproliferative effects	–	–	–	–	–	–	–	–
CC[C@]12C=CCN3CC[C@@]4(c5ccc(OC)cc5N(C)[C@H]4[C@@](O)(C(=O)OC)[C@@H]1OC(=O)CC(c1ccccc1)(c1ccccc1)c1ccccc1)[C@@H]32 [compound 13, 17-(O-3,3,3-Triphenylpropanoyl)vindoline]	–	no cytotoxic effect	11.9	39.9 ± 2.57	40.1	20.8	26.1 ± 1.55	22.1	antiproliferative effect (in words) ([3]; even at 30 μM): modest or negligible effect; inhibition at 10 µM [1, 9]: < 10%; inhibition at 30 µM [1, 9]: < 10%; inhibition at 10 µM [4, 9]: < 10%; inhibition at 10 µM [6, 9]: < 10%; inhibition at 30 µM [6, 9]: < 10%
CC[C@]12C=CCN3CC[C@@]4(c5cc(NC(=O)C[P+](c6ccccc6)(c6ccccc6)c6ccccc6)c(OC)cc5N(C)[C@H]4[C@@](O)(C(=O)OC)[C@@H]1OC(C)=O)[C@@H]32 [compound 16]	–	no cytotoxic effect; also recorded: no remarkable anticancer activity	29.5	21.7 ± 0.84	30	47.1	24.9 ± 0.78	27.5	inhibition at 10 µM [1, 10]: 15 ± 0.34%; inhibition at 30 µM [1, 11]: 36.8%; inhibition at 10 µM [4, 10]: 19.4 ± 0.64%; inhibition at 10 µM [6, 10]: 12.64 ± 0.03%; inhibition at 30 µM [6, 11]: 13.5%; inhibition at 10 µM ([7]; MCF-7, 10 μM, read-out: Growth Inhibition (%) ± SEM): 31.1 ± 3.1%
